Source: patent US8980906B2, “Pyridonemorphinan analogs and biological activity on opioid receptors” (Purdue Pharma L.P., priority 2012, dated 2015)

Experiments:
μ-opioid receptor = μ-opioid receptor (Homo sapiens (Human), UniProt P35372); assay: μ-opioid receptor [35S]GTPγS functional assay, HEK-293 or CHO cells; assay type: biochemical
ORL-1 receptor = ORL-1 receptor (Homo sapiens (Human), UniProt P41146); assay: ORL-1 receptor radioligand binding assay ([3H]-nociceptin); settings: binding affinity, [3H]-nociceptin displacement
Protocol: ORL-1 Receptor Binding Assay Procedure: Membranes from recombinant HEK-293 cells expressing the human opioid receptor-like receptor (ORL-1) (Perkin Elmer, Shelton, Conn.) were prepared by lysing cells in ice-cold hypotonic buffer (2.5 mM MgCl2, 50 mM HEPES, pH 7.4) (10 ml/10 cm dish) followed by homogenization with a tissue grinder/Teflon pestle. Membranes were collected by centrifugation at 30,000×g for […] at 4° C. and pellets resuspended in hypotonic buffer to a final concentration of 1-3 mg/ml. Protein concentrations were determined using the BioRad protein assay reagent with bovine serum albumen as standard. Aliquots of the ORL-1 receptor membranes were stored at −80° C.
Radioligand binding assays (screening and dose-displacement) used 0.1 nM [^3H]-nociceptin (Perkin Elmer, Shelton, Conn.; 87.7 Ci/mmole) with 12 μg membrane protein in a final volume of 500 μl binding buffer (10 mM MgCl2, 1 mM EDTA, 5% DMSO, 50 mM HEPES, pH 7.4). Non-specific binding was determined in the presence of […] unlabeled nociceptin (American Peptide Company). All reactions were performed in 96-deep well polypropylene plates for 1 h at room temperature. Binding reactions were terminated by rapid filtration onto 96-well Unifilter GF/C filter plates (Perkin Elmer, Shelton, Conn.) presoaked in 0.5% polyethylenimine (Sigma). Harvesting was performed using a 96-well tissue harvester (Perkin Elmer, Shelton, Conn.) followed by three filtration washes with 500 μl ice-cold binding buffer. Filter plates were subsequently dried at 50° C. for 2-3 hours. Fifty μl/well scintillation cocktail (Perkin Elmer, Shelton, Conn.) was added and plates were counted in a Packard Top-Count for 1 min/well. The data from screening and dose-displacement experiments were analyzed using Microsoft Excel and the curve fitting functions in GraphPad PRISM™, v. 3.0 or higher, respectively, or an in-house function for one-site competition curve-fitting.

δ-opioid receptor = δ-opioid receptor (Homo sapiens (Human), UniProt P41143); assay: δ-opioid receptor [35S]GTPγS functional assay, HEK-293 or CHO cells; assay type: biochemical
Protocol: δ-Opioid Receptor Functional Assay Procedures: Functional [^35S]GTPγS binding assays were conducted as follows. δ-Opioid receptor membrane solution was prepared by sequentially adding final concentrations of 0.026 μg/μl δ membrane protein (Perkin Elmer, Shelton, Conn.), 10 μg/mL saponin, 3 μM GDP and 0.20 nM [^35S]GTPγS to binding buffer (100 mM NaCl, 10 mM MgCl2, 20 mM HEPES, pH 7.4) on ice. The prepared membrane solution (190 μl/well) was transferred to 96-shallow well polypropylene plates containing 10 μl of 20× concentrated stock solutions of agonist prepared in DMSO. Plates were incubated for 30 min at a temperature of about 25° C. with shaking. Reactions were terminated by rapid filtration onto 96-well Unifilter GF/B filter plates (Perkin Elmer, Shelton, Conn.) using a 96-well tissue harvester (Packard) and followed by three filtration washes with 200 μl ice-cold binding buffer (10 mM NaH2PO4, 10 mM Na2HPO4, pH 7.4). Filter plates were subsequently dried at 50° C. for 1-2 hours. Fifty μl/well scintillation cocktail (Perkin Elmer, Shelton, Conn.) was added and plates were counted in a Packard Top-count for 1 min/well.
δ-Opioid Receptor Functional Data: δ GTP EC50 is the concentration of a compound providing 50% of the maximal response for the compound at a δ receptor.
δ GTP Emax (%) is the maximal effect elicited by a compound relative to the effect elicited by met-enkephalin.
In TABLE 2, activity response of certain Compounds of the Invention to the μ-, δ- and κ-opioid receptors was determined as described above for functional assays using HEK-293 or CHO cells.

Chain of δ-opioid receptor (P41143 whole entry, looked up): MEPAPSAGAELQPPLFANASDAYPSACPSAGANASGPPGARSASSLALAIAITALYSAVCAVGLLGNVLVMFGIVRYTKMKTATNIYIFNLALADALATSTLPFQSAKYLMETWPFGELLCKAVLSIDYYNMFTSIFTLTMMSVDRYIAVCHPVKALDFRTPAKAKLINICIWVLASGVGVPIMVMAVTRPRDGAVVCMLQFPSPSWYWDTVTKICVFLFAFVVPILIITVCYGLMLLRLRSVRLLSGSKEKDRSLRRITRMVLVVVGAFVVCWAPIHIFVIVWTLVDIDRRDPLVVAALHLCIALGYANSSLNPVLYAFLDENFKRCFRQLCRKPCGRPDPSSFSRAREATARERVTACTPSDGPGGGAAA

Row | SMILES | EC50 (μ-opioid receptor) | Ki (ORL-1 receptor) | EC50 (δ-opioid receptor) | Emax (δ-opioid receptor; relative to met-enkephalin, HEK-293 or CHO cells)
1 | NC(=O)c1cc2c([nH]c1=O)C[C@]13CCN(CC4CC4)[C@H](Cc4ccc(O)cc41)[C@]3(O)C2 [Compound 5, (6R,6aS,12aR)-15-(cyclopropylmethyl)-2,6a-dihydroxy-10-oxo-6,6a,7,10,11,12-hexahydro-5H-6,12a-(epiminoethano)naphtho[2,1-g]quinoline-9-carboxamide] | > 20000 nM | 1330 ± 310 nM | > 20000 nM | 
2 | O=C(O)c1cc2c([nH]c1=O)C[C@]13CCN(CC4CC4)[C@H](Cc4ccc(O)cc41)[C@]3(O)C2 [Compound 9, (6R,6aS,12aR)-15-(cyclopropylmethyl)-2,6a-dihydroxy-10-oxo-6,6a,7,10,11,12-hexahydro-5H-6,12a-(epiminoethano)naphtho[2,1-g]quinoline-9-carboxylic acid] | > 20000 nM | 2320 ± 320 nM | > 20000 nM | 
3 | O=C(O)c1cc2c([nH]c1=O)C[C@]13CCN(CC4CC4)[C@H](Cc4ccc(O)cc41)[C@@H]3C2 [Compound 11, (6R,6aR,12aS)-15-(cyclopropylmethyl)-2-hydroxy-10-oxo-6,6a,7,10,11,12-hexahydro-5H-6,12a-(epiminoethano)naphtho[2,1-g]quinoline-9-carboxylic acid] | > 20000 nM | 4.91 ± 0.82 nM | 3.53 ± 1.5 nM | 36 ± 3.21%
